Measured values published in patent US7279304B2, “Methods for preparation of macrocyclic molecules and macrocyclic molecules prepared thereby” (President and Fellows of Harvard College, priority 2000, dated 2007).
Where two headings read alike, the source gives them in different places. Where a SMILES comes first, the peptide text is derived from it. [ ]: non-standard residue; d: D form. The star is where a group is joined. ξ: configuration not given here. Butanoyl(3R-OH) = C[C@@H](O)CC(=O)*; dPhLac = O=C(O)[C@H](O)Cc1ccccc1; dOrn = NCCC[C@@H](N)C(=O)O; Hiv = CC(C)[C@H](O)C(=O)O; SCH2CH2NHAc = CC(=O)NCCS*; Orn = NCCC[C@H](N)C(=O)O; ξP = O=C(O)C1CCCN1

Columns and labels:
[1] = molecular target: T1, TycC TE (excised TE domain protein from the tyrocidine NRPS) (Brevibacillus parabrevis, UniProt O30409); type: biochemical; conditions: for cyclization rate compared with the substrate in Example 3: data not shown; for kcat / Km: Table 1, macrocyclization of peptide-SNAC substrate, 25 mM MOPS, pH 7.0; for thioester hydrolysis by TycC TE (result in words): kinetic parameters similar to the wild-type substrate (Ex. 3)
T1 construct: excised TE domain protein from the tyrocidine NRPS (TycC TE); made in house
T1 sequence (O30409 6238-6486): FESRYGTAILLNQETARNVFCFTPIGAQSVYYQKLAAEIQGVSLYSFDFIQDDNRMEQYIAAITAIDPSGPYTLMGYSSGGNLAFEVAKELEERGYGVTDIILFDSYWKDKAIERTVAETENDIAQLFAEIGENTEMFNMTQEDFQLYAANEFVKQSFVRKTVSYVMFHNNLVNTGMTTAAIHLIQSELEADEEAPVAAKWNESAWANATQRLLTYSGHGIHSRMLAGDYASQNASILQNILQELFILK
Method: Macrocyclization reactions were carried out in 25 mM MOPS, pH 7.0 in a total volume of 400 μL. Reactions were initiated by addition of TycC TE and quenched at various time points by the addition of 25 μL 1.7% TFA/water, flash frozen in liquid nitrogen and stored at −80° C. (for Ex. 13, reactions were quenched by the addition of sodium phosphate, pH 5.3, to 100 mM). The reactions were then thawed, 85 μL acetonitrile added, and analyzed by analytical HPLC with monitoring at 220 nm (20% to 80% acetonitrile in 0.1% TFA/water, or in 25 mM potassium phosphate, pH 5.3 for Ex. 13, over 35 minutes, Vydac protein and peptide C18 column). Initial rates were calculated using 1 minute time points. Peptide-SNAC and reaction product concentrations were determined for all Tyr-containing peptides based on the estimated extinction coefficient ε (280 nm)=1,280 M^−1 cm^−1, which agrees with the experimentally determined ε (280 nm) of Ex. 1. For peptide-SNACs not containing Tyr, ε (220 nm) was determined experimentally, and concentrations of corresponding cyclic products determined by assuming equal ε (220 nm) values for the peptide-SNAC and cyclic product.

[2] = molecular target: T2, excised TE domain protein from the surfactin synthetase (Bacillus subtilis, UniProt Q08787); experiment: Cyclization of thioester substrate to macrolactone by excised surfactin synthetase TE domain; type: biochemical
T2 construct: the excised TE domain protein from the surfactin synthetase protein system; made in house
T2 sequence (Q08787 1059-1271): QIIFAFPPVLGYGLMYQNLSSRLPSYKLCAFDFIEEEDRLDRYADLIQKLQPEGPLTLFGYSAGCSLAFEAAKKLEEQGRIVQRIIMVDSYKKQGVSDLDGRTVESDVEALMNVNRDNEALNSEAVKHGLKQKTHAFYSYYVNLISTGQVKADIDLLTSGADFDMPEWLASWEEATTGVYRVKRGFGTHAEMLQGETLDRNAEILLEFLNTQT
Text: In accord with the present invention, other linear substrate molecules can be cyclized by other excised TE domain proteins besides the TE domain protein excised from the tyrocidine NRPS. […] The excised surfactin TE domain protein selectively cyclizes substrates with the (R)-hydroxybutanamide nucleophile versus substrates with the (S)-hydroxybutamide nucleophile.
The observed specificity of the surfactin TE domain supports that TE domains can cyclize a variety of substrates provided that certain key recognition elements that are generally near the parts of the molecule that are joined in the cyclization reaction are present. For example, substrate 27 contains a change in the sequence of the heptapeptide compared to the wild-type surfactin sequence (D-Leu3 is changed to D-Orn), but this substrate is nevertheless cyclized by the excised TE domain from surfactin synthetase. When the (R)-hydroxybutanamide nucleophile in compound 27 was changed to a (S)-hydroxybutanamide nucleophile (a change near the parts of the molecule joined by the cylization reaction), cyclization activity was abolished.

D-Phe-Pro-Val-Orn-Leu-SNAC [pentapeptide-SNAC]
chain dimerization and subsequent cyclization to gramicidin S ([1]; incubation of pentapeptide-SNAC with TycC TE): efficient chain dimerization and subsequent cyclization occurred

CC(=O)NCCSC(=O)[C@H](CC(C)C)NC(=O)[C@H](CCCN)NC(=O)[C@@H](NC(=O)[C@H](Cc1ccc(O)cc1)NC(=O)[C@H](CCC(N)=O)NC(=O)[C@H](CC(N)=O)NC(=O)[C@@H](Cc1ccccc1)OC(=O)[C@H](Cc1ccccc1)NC(=O)C1CCCN1C(=O)[C@H](N)Cc1ccccc1)C(C)C (stereo partly drawn) [compound 22] (H-[dF][ξP]F[dPhLac]NQYV[Orn]L-SCH2CH2NHAc)
cyclization rate compared with the substrate in Example 3 [1]: similar

CC(=O)NCCSC(=O)[C@H](CC(C)C)NC(=O)[C@@H](CC(C)C)NC(=O)[C@H](CC(=O)O)NC(=O)[C@@H](NC(=O)[C@@H](CCCN)NC(=O)[C@H](CC(C)C)NC(=O)[C@H](CCC(=O)O)NC(=O)C[C@@H](C)O)C(C)C [compound 27] ({Butanoyl(3R-OH)}-EL[dOrn]VD[dL]L-SCH2CH2NHAc)
cyclization to macrolactone by excised surfactin TE domain [2]: efficiently cyclized

Phe-Pro-Phe-D-Phe-Asn-Gln-Tyr-Val-Orn-Leu-SNAC [Example 4]
cyclization by TycC TE domain (result in words) [1]: arrests cyclization activity
kcat [1]: 0
thioester hydrolysis by TycC TE (result in words) [1]: observed

CC(=O)NCCSC(=O)[C@H](CC(C)C)NC(=O)[C@H](CCCN)NC(=O)[C@@H](NC(=O)[C@H](Cc1ccc(O)cc1)NC(=O)[C@H](CCC(N)=O)NC(=O)[C@H](CC(N)=O)NC(=O)[C@@H](Cc1ccccc1)NC(=O)[C@H](Cc1ccccc1)NC(=O)[C@@H]1CCCN1C(=O)[C@H](N)Cc1ccccc1)C(C)C [Example 3, D-Phe-Pro-Phe-D-Phe-Asn-Gln-Tyr-Val-Orn-Leu-SNAC] (H-[dF]PF[dF]NQYV[Orn]L-SCH2CH2NHAc)
Km [1]: 3 µM

D-Phe-Pro-Val-Orn-Leu-D-Phe-Pro-Val-Orn-Leu-SNAC [Example 17]
kcat [1]: 12
Km ([1]; read-out: KM): 5 µM
KM as compared to Ex. 3 ([1]; cyclization): comparable
reduction in kcat relative to wild-type substrate (Ex. 3) ([1]; cyclization): 5 fold

D-Ala-Pro-Phe-D-Phe-Asn-Gln-Tyr-Val-Orn-Leu-SNAC [Example 5]
cyclization by TycC TE domain (result in words) [1]: arrests cyclization activity
kcat [1]: 0
thioester hydrolysis by TycC TE (result in words) [1]: observed

CC(=O)NCCSC(=O)[C@H](CC(C)C)NC(=O)[C@H](CCCN)NC(=O)[C@@H](NC(=O)[C@H](Cc1ccc(O)cc1)NC(=O)[C@H](CCC(N)=O)NC(=O)[C@H](CC(N)=O)NC(=O)[C@@H](Cc1ccccc1)NC(=O)[C@H](Cc1ccccc1)NC(=O)C1CCCN1C(=O)[C@H](O)Cc1ccccc1)C(C)C (stereo partly drawn) [compound 24] (H-[dPhLac][ξP]F[dF]NQYV[Orn]L-SCH2CH2NHAc)
cyclization by TycC TE domain (result in words) [1]: macrocyclized

CC(=O)NCCSC(=O)[C@H](CC(C)C)NC(=O)[C@H](CCCN)NC(=O)[C@@H](OC(=O)[C@H](Cc1ccc(O)cc1)NC(=O)[C@H](CCC(N)=O)NC(=O)[C@H](CC(N)=O)NC(=O)[C@@H](Cc1ccccc1)NC(=O)[C@H](Cc1ccccc1)NC(=O)C1CCCN1C(=O)[C@H](N)Cc1ccccc1)C(C)C (stereo partly drawn) [compound 23] (H-[dF][ξP]F[dF]NQY[Hiv][Orn]L-SCH2CH2NHAc)
cyclization rate compared with the substrate in Example 3 [1]: similar
